Results published in patent US7354611B1, “Fecundity-promoting supplement for the insidious flower bug reared on artificial diet” (The United States of America as represented by the …, priority 2003, dated 2008).

Test system: Orius insidiosus
Test: Orius insidiosus fecundity (oviposition) bioassay: adults fed artificial diet with or without supplement, cumulative eggs laid/female counted on green bean
Format: in vivo
Settings: Test 2
Method: Newly emerged adults of Orius insidiosus (<24 hour eclosion) were obtained from a commercial producer of beneficial insects (Entomos, Gainesville, Fla.). The insects were placed on the experimental diets on the third day after eclosion. Each diet treatment consisted of six females and four males in a 100-ml plant tissue culture jar (Sigma, St. Louis, Mo.) with four jars per treatment. Each jar contained one paraffin-encapsulated water dome (50 μl), two artificial diet domes (50 μl), one 7-cm section of green bean pod for oviposition, and three crumpled strips of wax paper (5 mm×80 mm) as substrates for the insects to crawl on. Artificial diet jars contained only artificial diet. Experimental diet jars contained artificial diet plus a supplement. Plodia egg (standard) jars each contained approximately 75 Ploida interpunctella eggs (approximately 3 mg) in place of diet. Although eggs from Euphestia kuehniella are generally used by commercial producers, eggs from P. interpunctella were used because O. insidiosus feeds readily on their eggs. Green beans were removed every other day and examined under a microscope to count eggs and then replaced with a fresh green bean section and mortality was also recorded within each jar. Plodia eggs and domes of water and diet were replaced on the same days that the green beans were removed for counting eggs. The insects were held in a growth chamber at about 25.50±1° C., with approximately 75±5% relative humidity, and a photoperiod of 15:9 (light:dark) hours. The experiments were carried out until the females in all treatments ceased oviposition, approximately 28 days. Diets were prepared under aseptic conditions in a clean room and encapsulated in Parafilm using a diet encapsulation apparatus as described in Ferkovich et al. (BioControl, Volume 45, 401-413, 2000).
The artificial diet was developed for rearing Orius sauteri (Weiru and Ren, 1989, supra), and consisted of approximately 4.0 grams brewers yeast, 0.4 grams sucrose, 2.1 grams soy protein acid hydrolysate, 0.046 grams of 99% palmitic acid (all from Sigma, St. Louis, Mo.), 0.5 grams chicken egg yolk, and 1.0 gram honey in 12 ml distilled water. Palmitic acid was mixed with the egg yolk component before adding it to the diet.
Two tests were conducted. In the first test, artificial diet was compared with the experimental diets which were composed of artificial diet supplemented with homogenized Plodia eggs, and protein and lipid extracts from Plodia eggs as described above. Each experimental diet was compared against the control artificial diet in an independent experiment on different dates. In the second test, any of the statistically significant experimental diets from the first test were then simultaneously compared with the experimental diets containing non-insect supplements.
Each treatment in both tests was replicated four times with 6 females and 4 males/replication. The cumulative number of eggs laid/female on artificial diet and on experimental diet were calculated relative to the percent eggs laid/female on Plodia eggs (standard); thus, mean ±S.E.=[#eggs laid per female on either artificial diet or experimental diet divided by # eggs laid per female on Plodia eggs]×100, n=4. The egg counts were adjusted for mortality. The egg counts per female were calculated for each replication. Data was analyzed by ANOVA using StatMost Software (Dataxiom Software Inc.). […]

[1] = Bovine Serum Albumin 83.3 mg/ml diet
[2] = Bovine Serum Albumin 166.7 mg/ml diet

Bovine Serum Albumin: Bovine Serum albumin, Fraction V powder, Sigma
% of Plodia egg Standard ± SE [1]: 51.3 ± 4.1% | Mean no. eggs/female ± SE [1]: 19.7 ± 1.6 eggs/female | % of Plodia egg Standard ± SE [2]: 64.9 ± 4.2% | Mean no. eggs/female ± SE [2]: 24.9 ± 1.6 eggs/female | effect on cumulative mean number of egg oviposited/female (versus artificial diet (Table 2)): significantly increased
